Reference: PMC5001616 (Nucleic Acids Research, 2016)
“And” between values parts separate entries of the source, which are not always exact repeats. Equal values may be shown once. Read-outs that look alike come from different tables or passages of the source.

Experiments:
WT HIV-1 IN [1] = target: T1, WT HIV-1 IN (Human immunodeficiency virus type 1 group M subtype B, UniProt P12497); assay: 3'-processing (3'-P) inhibition, recombinant WT IN, gel-based; format: biochemical
T1 construct: we tested the 3′-P activity of WT and SH mutant integrases; made in house
Protocol: (§1) Oligonucleotides harboring a tetrahydrofuran group in place of the nucleobase at position −1 (21Ab-1, […]_GT), at position +1 (21Ab+1, […]_T), position +2 (21Ab+2, […]_) and in place of the last 2 bases (21-2Ab, […]__) were purchased from Eurogentec with PAGE purification. 5’-Labeling was performed using T4 polynucleotide kinase (New England Biolabs, Ipswich, MA, USA) with [γ-^32P]-ATP (Perkin-Elmer Life and Analytical Sciences, Boston, MA, USA) according to the manufacturers’ instructions. Unincorporated isotopes were removed using the Mini Quick spin oligo columns (Roche). Duplex substrates were obtained by annealing ‘top’ (21t or 19t) and ‘bottom’ (21b) oligonucleotides at equimolar ratio.
(§2) WT and mutant INs were purified and their enzymatic activities measured as previously reported ([11]). […] 3′-P and ST reactions were performed at 37°C for 120 min unless otherwise indicated.
(§3) Linear regressions, fit curves, IC50 determinations, standard deviations, standard error of the mean and statistical analyses (P-values) were generated using GraphPad Prism software 5.0c. Pearson and Spearman correlations were determined using the following equation: […]

[2] = target: G140S-Q148H (SH) mutant HIV-1 IN (Human immunodeficiency virus type 1 group M subtype B, UniProt P12497, G1287S/Q1295H); conditions: abasic substrates vs normal substrate
Protocol: as §1, §2, §3

WT HIV-1 IN [3] = target: T1, WT HIV-1 IN; conditions: read-out: IC50, inhibition of ST; cited from earlier work
WT HIV-1 intasome = conditions: cited from earlier work

## C[C@@H]1CCO[C@H]2Cn3cc(C(=O)NCc4ccc(F)cc4F)c(=O)c(O)c3C(=O)N12 [DTG, dolutegravir]
WT HIV-1 IN [1]; IC50 for 3'-P divided by IC50 for ST
  Selectivity index (SI) for 3'-P/ST: 50
WT HIV-1 IN [1]; read-out: IC50, inhibition of 3'-P, canonical CAGT substrate, 120 min
  IC50: 1.64 µM and 1.6 µM
[2]
  Increase of IC50 for 3'-P on removing either the -1 or +1 base: about 100 fold
WT HIV-1 IN [3]
  IC50: 0.033 µM
WT HIV-1 intasome; longer than EVG
  Time bound to the WT HIV-1 intasome relative to EVG: 26 fold
WT HIV-1 intasome; longer than RAL
  Time bound to the WT HIV-1 intasome relative to RAL: 8 fold
